# Test results from PubChem BioAssay AID1396 (The Scripps Research Institute Molecular Screening Center, 2008).
# The source made the active and inactive calls. The rule behind the calls is not given here.
# Target: Signal transducer and activator of transcription 1-alpha/beta (Homo sapiens) (UniProt P42224)
# Assay: inhibition of STAT1 reporter activity – cell-based, NIH 3T3, luciferase reporter, dose response (AID 1396)
# Details: NIH 3T3 fibroblasts
# Chain of Signal transducer and activator of transcription 1-alpha/beta (Homo sapiens) (P42224 whole entry, looked up): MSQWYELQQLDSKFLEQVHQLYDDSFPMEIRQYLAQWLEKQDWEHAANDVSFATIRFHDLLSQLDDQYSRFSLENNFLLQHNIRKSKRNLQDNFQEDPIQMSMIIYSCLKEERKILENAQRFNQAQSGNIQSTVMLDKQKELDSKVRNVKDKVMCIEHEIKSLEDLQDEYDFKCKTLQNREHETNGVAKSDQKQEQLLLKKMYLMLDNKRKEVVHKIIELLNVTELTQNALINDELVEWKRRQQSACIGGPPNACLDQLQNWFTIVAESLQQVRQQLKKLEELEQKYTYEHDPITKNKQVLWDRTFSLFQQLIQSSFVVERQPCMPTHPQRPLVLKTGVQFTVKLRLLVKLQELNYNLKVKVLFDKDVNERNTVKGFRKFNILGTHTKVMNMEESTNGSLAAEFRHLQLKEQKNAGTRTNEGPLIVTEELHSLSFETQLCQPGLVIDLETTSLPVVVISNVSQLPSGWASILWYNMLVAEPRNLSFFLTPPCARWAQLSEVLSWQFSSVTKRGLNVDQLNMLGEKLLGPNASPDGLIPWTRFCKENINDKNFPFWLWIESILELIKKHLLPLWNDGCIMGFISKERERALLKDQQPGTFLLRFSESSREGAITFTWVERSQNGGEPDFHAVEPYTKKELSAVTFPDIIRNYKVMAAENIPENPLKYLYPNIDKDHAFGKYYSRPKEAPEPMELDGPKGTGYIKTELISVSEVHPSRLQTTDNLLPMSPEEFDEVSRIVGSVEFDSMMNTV
row,IC50,Compound
1,9.39 µM,O=C(CSc1nc2ccccc2c(=O)[nH]1)c1ccc(O)cc1O
2,> 55.7 µM (inactive),O=C(NNC(=O)c1cccc(S(=O)(=O)N2CCc3ccccc32)c1)c1ccccc1
3,4.42 µM,CCn1c(O)c(/C=N/NC(=O)c2ccncc2)c(=O)n(CC)c1=S
4,inactive,COc1ccc(CNc2ncnc3cc(Cl)ccc23)cc1OC
5,inactive,C#Cc1ccc([C@H]2C=C(C(=O)OCC=C)O[C@@H](OCC)[C@@H]2CCCO)cc1
6,9.97 µM,CS(=O)(=O)c1nc(-c2ccccc2)cc(C(F)(F)F)n1
7,9.25 µM,Cc1cc(=O)n(C(NC(=O)c2ccccc2)C(=O)c2ccccc2)cn1 (centres undefined)
8,inactive,CCOC(=O)CCS(=O)(=O)c1nc(-c2ccccc2)cc(C(F)(F)F)n1
9,5.2 µM,Cc1ccc(-n2nc(C(=O)O)c3ccccc3c2=O)cc1C
10,inactive,COCC(C)NC(=O)CCS(=O)(=O)c1nc(-c2ccc(OC)cc2)cc(C(F)(F)F)n1 (centres undefined)
11,inactive,COc1ccc(-c2cc(C(F)(F)F)nc(S(=O)(=O)CCCC(=O)Nc3cc(C)on3)n2)cc1OC
12,inactive,CN1CCN(Cc2nc3ccccc3c(=O)n2Cc2nc(-c3cccc([N+](=O)[O-])c3)cs2)CC1
13,> 18.6 µM (inactive),CS(=O)(=O)c1nc(-c2ccco2)cc(C(F)(F)F)n1
14,7.87 µM,Cc1ccc(S(=O)(=O)N2CCN(C(C(=O)Nc3ccc(F)cc3)c3ccccc3)CC2)cc1 (centres undefined)
15,> 55.7 µM (inactive),COc1ccc(CCNc2ncnc3cc(OC)c(OC)cc23)cc1OC
16,inactive,CCn1c(=O)c2cc(C(=O)N3CCCC3)sc2c2ccccc21
17,inactive,O=C(c1ccco1)N1CCN(c2ncnc3c2[nH]c2ccc(Br)cc23)CC1
18,inactive,CCOC(=O)c1c(C)nc2sc3c(=O)n(-c4ccc(OC)cc4)nnc3c2c1-c1ccc(OC)cc1
19,inactive,CCN(CC)S(=O)(=O)c1ccc(N2CCOCC2)c(NC(=O)c2cc(-c3ccccn3)nc3ccccc23)c1
20,6.7 µM,Cc1ccc(-c2csc3ncnc(Sc4nnc(CN5CCCCCC5=O)o4)c23)cc1
21,inactive,COc1ccc(-n2c(SCc3cccnc3)nc3c(c2=O)SCC3)cc1OC
22,inactive,Cn1c(C(=O)N2CCN(c3ccc([N+](=O)[O-])cc3)CC2)cc2c(=O)[nH]c3ccccc3c21
23,> 55.7 µM (inactive),Cc1ccccc1-c1noc(N)c1C#N
24,inactive,Cc1ccccc1NC(=O)C(=Cc1ccc(C(=O)O)cc1)C(=O)Nc1ccccc1C

# More lines, now with the values behind:
row,Compound,IC50
1,Cc1cccc(/C=C(\c2nc3ccccc3[nH]2)S(=O)(=O)c2ccccc2)c1,> 55.7 µM (inactive)
2,Cc1ccc2[nH]c3c(N4CCN(Cc5ccccc5)CC4)ncnc3c2c1,> 55.7 µM (inactive)
3,CCOC(=O)N1CCN(C(=O)/C=C/c2c(C)nn(-c3ccc(F)cc3)c2Cl)CC1,inactive
4,CCOC(=O)N1CCN(C(=O)c2ccc(-n3c(=S)[nH]c4ccccc4c3=O)cc2)CC1,3.47 µM
5,COc1ccc(-c2cc(C(F)(F)F)nc(S(=O)(=O)CCCC(=O)Nc3cccnc3Cl)n2)cc1OC,inactive
6,CS(=O)(=O)c1nc(-c2ccc(F)cc2)cc(C(F)(F)F)n1,inactive
7,COc1ccc(-c2cc(C(F)(F)F)nc(S(=O)(=O)CCCC(=O)Nc3cccc(O)c3)n2)cc1OC,inactive
8,CCOC(=O)N1CCN(C(=O)c2ccc(CSc3ccc(Cl)cc3)cc2)CC1,> 55.7 µM (inactive)
9,O=C(c1ccc(Cl)cc1)N1CCN(c2ccnc3cc(Cl)ccc23)CC1,> 55.7 µM (inactive)
10,CC1(C)Cc2c(ccc3ccccc23)C2=C(C(=O)N3CCCC3)C(=O)C(=O)N21,inactive
11,COC(=O)CCS(=O)(=O)c1nc(-c2ccccc2)cc(C(F)(F)F)n1,inactive
12,Cc1ccc(C(=O)Nc2cccc(N(C)S(C)(=O)=O)c2)cc1S(=O)(=O)Nc1ccccc1,inactive
13,Cc1cc(NC(=O)CCCS(=O)(=O)c2nc(-c3cccs3)cc(C(F)(F)F)n2)no1,inactive
14,COc1ccccc1-c1cc(C(F)(F)F)nc(S(=O)(=O)CCCC(=O)Nc2cccnc2Cl)n1,> 18.6 µM (inactive)
15,COc1ccccc1-c1cc(C(F)(F)F)nc(S(=O)(=O)CCCC(=O)N2CCOCC2)n1,> 6.19 µM (inactive)
16,CN1CCN(Cc2nc3ccccc3c(=O)n2Cc2nc(-c3ccccc3F)cs2)CC1,4.24 µM
17,COc1ccccc1-c1cc(C(F)(F)F)nc(S(C)(=O)=O)n1,> 18.6 µM (inactive)
18,COc1ccc(CCNC(=O)Cn2c(=O)n(-c3ccc(F)cc3)c(=O)c3sccc32)cc1OC,inactive
19,COC(=O)C1=CN(Cc2ccc(OC)c(OC)c2)C=C(C(=O)OC)C1c1cccs1,inactive
20,O=C(c1ccc2c(c1)N(Cc1ccccc1)C(=O)c1ccccc1S2)N1CCCC1,8.43 µM
21,CCOc1cc(-c2noc(N)c2C#N)cc(OCC)c1OCC,> 55.7 µM (inactive)
22,CN1CCN(Cc2nc3ccccc3c(=O)n2Cc2nc(-c3ccc4ccccc4c3)cs2)CC1,9.58 µM
23,O=c1cc(CSc2nc3ccccc3c(=O)[nH]2)c2ccc(O)cc2o1,4.36 µM
24,COc1ccccc1CNc1ncnc2cc(Cl)ccc12,> 55.7 µM (inactive)
25,Cn1nnnc1Sc1ncnc2scc(-c3ccc(F)cc3)c12,inactive
